ChEMBL document CHEMBL3580659, “One-pot multicomponent synthesis of indole incorporated thiazolylcoumarins and their antibacterial, anticancer and DNA cleavage studies” (2015)

What was measured:
Type in all cases: functional
PC-3 [1] = assay: Cytotoxicity against human PC3 cells assessed as cell growth level at 10 uM after 48 hrs by sulforhodamine B assay
HCT-15 = assay: Cytotoxicity against human HCT15 cells assessed as cell growth level at 10 uM after 48 hrs by sulforhodamine B assay
[2] = Cytotoxicity against human NCI-ADR-RES cells after 48 hrs by sulforhodamine B assay
NCI-H23 = assay: Cytotoxicity against human NCI-H23 cells assessed as cell growth level at 10 uM after 48 hrs by sulforhodamine B assay
MDA-MB-468 = assay: Cytotoxicity against human MDA-MB-468 cells assessed as cell growth level at 100 uM after 48 hrs by sulforhodamine B assay
T47D = assay: Cytotoxicity against human T47D cells assessed as cell growth level at 1 uM after 48 hrs by sulforhodamine B assay
SK-OV-3 [3] = assay: Cytotoxicity against human SKOV3 cells assessed as cell growth level at 10 nM after 48 hrs by sulforhodamine B assay
OVCAR-4 [4] = assay: Cytotoxicity against human OVCAR4 cells after 48 hrs by sulforhodamine B assay; details: OVCAR-4, 48 h
LOX IMVI [5] = assay: Cytotoxicity against human LOXIMVI cells assessed as cell growth level at 1 uM after 48 hrs by sulforhodamine B assay
PC-3 [6] = assay: Cytotoxicity against human PC3 cells assessed as cell growth level at 10 nM after 48 hrs by sulforhodamine B assay
A549 = assay: Cytotoxicity against human A549/ATCC cells assessed as cell growth level at 100 uM after 48 hrs by sulforhodamine B assay
SK-MEL-2 = assay: Cytotoxicity against human SK-MEL-2 cells after 48 hrs by sulforhodamine B assay; details: SK-MEL-2, 48 h
COLO 205 [7] = assay: Cytotoxicity against human COLO205 cells assessed as cell growth level at 10 nM after 48 hrs by sulforhodamine B assay
IGROV-1 = assay: Cytotoxicity against human IGROV1 cells after 48 hrs by sulforhodamine B assay; details: IGROV-1, 48 h
OVCAR-4 [8] = assay: Cytotoxicity against human OVCAR4 cells assessed as cell growth level at 100 nM after 48 hrs by sulforhodamine B assay
NCI-H522 = assay: Cytotoxicity against human NCI-H522 cells assessed as cell growth level at 100 uM after 48 hrs by sulforhodamine B assay
OVCAR-3 = assay: Cytotoxicity against human OVCAR3 cells after 48 hrs by sulforhodamine B assay; details: OVCAR-3, 48 h
NCI-H460 = assay: Cytotoxicity against human NCI-H460 cells assessed as cell growth level at 100 uM after 48 hrs by sulforhodamine B assay
ACHN [9] = assay: Cytotoxicity against human ACHN cells assessed as cell growth level at 100 nM after 48 hrs by sulforhodamine B assay
CAKI-1 = assay: Cytotoxicity against human CAKI-1 cells assessed as cell growth level at 100 uM after 48 hrs by sulforhodamine B assay
HT-29 [10] = assay: Cytotoxicity against human HT-29 cells after 48 hrs by sulforhodamine B assay; details: HT-29, 48 h
LOX IMVI [11] = assay: Cytotoxicity against human LOXIMVI cells assessed as cell growth level at 10 nM after 48 hrs by sulforhodamine B assay
SK-OV-3 [12] = assay: Cytotoxicity against human SKOV3 cells assessed as cell growth level at 100 uM after 48 hrs by sulforhodamine B assay
SK-MEL-5 = assay: Cytotoxicity against human SK-MEL-5 cells assessed as cell growth level at 100 uM after 48 hrs by sulforhodamine B assay
[13] = Cytotoxicity against human NCI-ADR-RES cells assessed as cell growth level at 10 nM after 48 hrs by sulforhodamine B assay
[14] = Cytotoxicity against human NCI-ADR-RES cells assessed as cell growth level at 10 uM after 48 hrs by sulforhodamine B assay
Malme-3M = assay: Cytotoxicity against human MALME-3M cells assessed as cell growth level at 100 uM after 48 hrs by sulforhodamine B assay
OVCAR-8 = assay: Cytotoxicity against human OVCAR8 cells assessed as cell growth level at 100 uM after 48 hrs by sulforhodamine B assay
UACC-257 [15] = assay: Cytotoxicity against human UACC257 cells assessed as cell growth level at 100 nM after 48 hrs by sulforhodamine B assay
COLO 205 [16] = assay: Cytotoxicity against human COLO205 cells after 48 hrs by sulforhodamine B assay; details: COLO 205, 48 h
COLO 205 [17] = assay: Cytotoxicity against human COLO205 cells assessed as cell growth level at 100 uM after 48 hrs by sulforhodamine B assay
ACHN [18] = assay: Cytotoxicity against human ACHN cells assessed as cell growth level at 100 uM after 48 hrs by sulforhodamine B assay
UACC-257 [19] = assay: Cytotoxicity against human UACC257 cells assessed as cell growth level at 100 uM after 48 hrs by sulforhodamine B assay
KM12 = assay: Cytotoxicity against human KM12 cells assessed as cell growth level at 1 uM after 48 hrs by sulforhodamine B assay
HT-29 [20] = assay: Cytotoxicity against human HT-29 cells assessed as cell growth level at 10 uM after 48 hrs by sulforhodamine B assay
[21] = read-out: LC50 (the source's name)
[22] = read-out: pLC50 (the source's name) (converted)

O=c1oc2ccccc2cc1-c1csc(N/N=C/c2c[nH]c3ccccc23)n1
Activity (PC-3 [1]): -37.33%
Activity (HCT-15): 12.32%
GI50 ([2]; read-out: GI50): 2.82 µM
CC50 [2, 21]: > 100 µM
TGI ([2]; read-out: TGI): 9.23 µM
GI50 ([2]; read-out: pGI50 (converted)): 2.82 µM
CC50 [2, 22]: > 100 µM
TGI ([2]; read-out: pTGI): < 9.33 µM
Activity (NCI-H23): 25.93%
Activity (MDA-MB-468): -39%
Activity (T47D): 81%
Activity (SK-OV-3 [3]): 94%
GI50 (OVCAR-4 [4]; read-out: GI50): 1.37 µM
CC50 (OVCAR-4 [4]; [21]): > 100 µM
TGI (OVCAR-4 [4]; read-out: TGI): 5.87 µM
GI50 (OVCAR-4 [4]; read-out: pGI50 (converted)): 1.38 µM
CC50 (OVCAR-4 [4]; [22]): > 100 µM
TGI (OVCAR-4 [4]; read-out: pTGI (converted)): 5.89 µM
Activity (LOX IMVI [5]): 74%
Activity (PC-3 [6]): 105%
Activity (A549): -29%
GI50 (SK-MEL-2; read-out: GI50): 1.61 µM
CC50 (SK-MEL-2; [21]): 8.17 µM
TGI (SK-MEL-2; read-out: TGI): 3.62 µM
GI50 (SK-MEL-2; read-out: pGI50 (converted)): 1.62 µM
CC50 (SK-MEL-2; [22]): 8.13 µM
TGI (SK-MEL-2; read-out: pTGI (converted)): 3.63 µM
Activity (COLO 205 [7]): 110%
GI50 (IGROV-1; read-out: GI50): 1.54 µM
CC50 (IGROV-1; [21]): > 100 µM
TGI (IGROV-1; read-out: TGI): 4.7 µM
GI50 (IGROV-1; read-out: pGI50 (converted)): 1.55 µM
CC50 (IGROV-1; [22]): > 100 µM
TGI (IGROV-1; read-out: pTGI (converted)): 4.68 µM
Activity (OVCAR-4 [8]): 91%
Activity (NCI-H522): -80%
GI50 (OVCAR-3; read-out: GI50): 1.16 µM
CC50 (OVCAR-3; [21]): 7.31 µM
TGI (OVCAR-3; read-out: TGI): 2.91 µM
GI50 (OVCAR-3; read-out: pGI50 (converted)): 1.15 µM
CC50 (OVCAR-3; [22]): 7.24 µM
TGI (OVCAR-3; read-out: pTGI (converted)): 2.88 µM
Activity (NCI-H460): -94%
Activity (ACHN [9]): 97%
Activity (CAKI-1): -57%
GI50 (HT-29 [10]; read-out: GI50): 2.01 µM
CC50 (HT-29 [10]; [21]): > 100 µM
TGI (HT-29 [10]; read-out: TGI): 5.55 µM
GI50 (HT-29 [10]; read-out: pGI50 (converted)): 2 µM
CC50 (HT-29 [10]; [22]): > 100 µM
TGI (HT-29 [10]; read-out: pTGI (converted)): 5.5 µM
Activity (LOX IMVI [11]): 91%
Activity (SK-OV-3 [12]): -48%
Activity (SK-MEL-5): -46%
Activity [13]: 105%
Activity [14]: 24.9%
Activity (Malme-3M): -67%
Activity (OVCAR-8): -8%
Activity (UACC-257 [15]): 88%
GI50 (COLO 205 [16]; read-out: GI50): 1.92 µM
LC50 (concentration killing 50% of cells) (COLO 205 [16]; read-out: LC50): 6.55 µM
TGI (COLO 205 [16]; read-out: TGI): 3.55 µM
GI50 (COLO 205 [16]; read-out: pGI50 (converted)): 1.91 µM
LC50 (concentration killing 50% of cells) (COLO 205 [16]; read-out: pLC50 (converted)): 6.61 µM
TGI (COLO 205 [16]; read-out: pTGI (converted)): 3.55 µM
Activity (COLO 205 [17]): -36%
Activity (ACHN [18]): -45%
Activity (UACC-257 [19]): -89%
Activity (KM12): 95%
Activity (HT-29 [20]): 32.14%
